Reference: PubChem BioAssay AID2060899 (Molecular Pharmacology Branch, DTP, NCI, 2025)

Test system: 565726-208-R1-J5-PDC complex spheroids, growth inhibition
Assay: Anticancer human tumor 565726-208-R1-J5-PDC patient-derived pancreatic adenocarcinoma cell line growth inhibition [RAS]
Conditions: for IC50: curve of first compound; for viability, T/C: stronger effect = lower value
Text: RAS pathway inhibitors in Combinations in Complex Spheroids
A high-throughput screen of multi-cell type tumor spheroids was designed to identify active combinations of RAS pathway inhibitors and targeted small molecules. Complex spheroids include a stromal component modeled by human endothelial cells (HUVEC) and fibroblasts modeled by human mesenchymal stem cells (MSCs). The concentration ranges selected for each drug and investigational agent were based upon clinically achievable concentrations if the clinical Cmax of the agent was known.
Compounds. The drugs and investigational agents: abemaciclib (NSC768073), cobimetinib (NSC768068), divarasib (GDC6063, NSC841802), docetaxel (NSC628503), GDC-1971 (RLY-1971, NSC841576), gemcitabine (NSC613327), inavolisib (NSC800729), ipatasertib (NSC767898), KB-0742 (NSC834161), MRTX-1133 (NSC836407), osimertinib (NSC779217), RMC-4630 (NSC839698), RMC-6236 (NSC851965), RMC-6291 (NSC852671), Ro-3306 (NSC812927), sapanisertib (NSC764658), SN-38 (NSC673596), staurosporine (NSC755774), SY5609 (NSC837396), and tovorafenib (DAY101, NSC766906), were obtained from the National Cancer Institute (NCI) Developmental Therapeutics Program Chemical Repository. The FDA-approved anticancer drug set is available from the NCI Developmental Therapeutics Program. […] The stock solutions were prepared in dimethyl sulfoxide (DMSO, Sigma-Aldrich, St. Louis, MO, cat. D2650) at 800-fold the tested concentration and stored at -70 degrees C prior to their use. All drugs and investigational agents were tested over a range starting from a high concentration at or near the clinical Cmax and decreasing in half-log increments. If the clinical Cmax for an agent had not been determined, the highest concentration tested was 10 microM.
Cell Culture. All cells were maintained in an incubator at 37 degrees C and 5% CO2 with 95% humidity. The PDC lines were cultured according to standard operating procedures established by the NCI PDMR. All PDCs were thawed and cultured in Matrigel-coated flasks prepared with a working solution of 1X Ham's F-12 nutrient mix, without supplementation (Invitrogen, Waltham, MA, cat. 11765054), 100 U/mL penicillin-streptomycin (Invitrogen, cat. 15140122), and 2.5% Matrigel (Corning Inc., Corning, NY, cat. 354248) for the first three passages. The 362531-283-R-J2-PDC and 782815-120-R-J1-PDC lines were cultured in 6C/Colon 1B media, which includes advanced DMEM/F-12 (Thermo Fisher Scientific, cat. 12634028), 10 mM HEPES (Thermo Fisher Scientific, cat. 15630080), 1X GlutaMAX supplement (Thermo Fisher Scientific, cat. 35050061), 0.1 mg/mL primocin (InvivoGen, San Diego, CA, cat. ant-pm-2), 10% defined fetal bovine serum, heat inactivated (HyClone Laboratories Inc., Logan, UT, cat. SH30070.03HI), 50% L-WRN conditioned media (ATCC, cat. CRL-3276), 1.25 mM N-Acetyl-L-cysteine (Sigma-Aldrich, cat. A9165), 10 mM nicotinamide (Sigma-Aldrich, cat. N0636), 1X B-27 supplement (Thermo Fisher Scientific, cat. 17504044), 1X N-2 supplement (Thermo Fisher Scientific, cat. 17502048), 50 ng/mL human EGF (Thermo Fisher Scientific, cat. PHG0311), and 10 microM Y-27632 dihydrochloride (Tocris Bioscience, cat. 1254). The K12877-001-R-J1-PDC line was cultured in 6I media, which includes all 6C/Colon 1B media plus 10 ng/mL human FGF-10 (PeproTech, cat. 100-26), 1 ng/mL human FGF-2 (PeproTech, cat. 100-18B), 1 µM prostaglandin E2 (Tocris Bioscience, cat. 2296), […] hydrocortisone (Sigma-Aldrich, cat. H4001), and […] bovine insulin (Sigma-Aldrich, cat. I6634). The K86415-001-R-J1-PDC line was cultured in 6D media, which includes all 6C/Colon 1B media components minus the L-WRN conditioned media. The 485176-168-R4-J1-PDC was cultured in PANC media, which includes all 6C/Colon 1B media plus 100 ng/mL human FGF-10 (PeproTech, cat. 100-26), 500 nM SB-431542 (Selleckchem, cat. S1067), and 10 nM gastrin (Tocris Bioscience, cat. 3006). […]
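Further: spheroids exposed to compounds for seven days before readout.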
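Wherever viability, T/C is given: 100% = DMSO vehicle control viability.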

- IC50 (second compound 0.0316 µM): 593 nM
- IC50 (second compound 0.1 µM): > 1000 nM
- IC50 (second compound 0.316 µM): 95 nM
- IC50 (second compound 1 µM): 76.8 nM
- IC50 (second compound 3.16 µM): 83.4 nM
- IC50 (second compound 10 µM): 26.3 nM
Compound: O=C(c1ccc(F)c(F)c1Nc1ccc(I)cc1F)N1CC(O)([C@@H]2CCCCN2)C1 + C#Cc1c(F)ccc2cc(O)cc(-c3ncc4c(N5CC6CCC(C5)N6)nc(OCC56CCCN5CC(F)C6)nc4c3F)c12
- viability, T/C (second compound 0.0316 µM, first compound 0.00316 µM): 118%
- viability, T/C (second compound 0.0316 µM, first compound 0.01 µM): 131%
- viability, T/C (second compound 0.0316 µM, first compound 0.0316 µM): 74.8%
- viability, T/C (second compound 0.0316 µM, first compound 0.1 µM): 76.5%
- viability, T/C (second compound 0.0316 µM, first compound 0.316 µM): 78.3%
- viability, T/C (second compound 0.0316 µM, first compound 1 µM): 33.3%
- viability, T/C (second compound 0.1 µM, first compound 0.00316 µM): 116%
- viability, T/C (second compound 0.1 µM, first compound 0.01 µM): 138%
- viability, T/C (second compound 0.1 µM, first compound 0.0316 µM): 69.1%
- viability, T/C (second compound 0.1 µM, first compound 0.1 µM): 62.3%
- viability, T/C (second compound 0.1 µM, first compound 0.316 µM): 63.6%
- viability, T/C (second compound 0.1 µM, first compound 1 µM): 34.8%
- viability, T/C (second compound 0.316 µM, first compound 0.00316 µM): 117%
- viability, T/C (second compound 0.316 µM, first compound 0.01 µM): 118%
- viability, T/C (second compound 0.316 µM, first compound 0.0316 µM): 67.3%
- viability, T/C (second compound 0.316 µM, first compound 0.1 µM): 53.9%
- viability, T/C (second compound 0.316 µM, first compound 0.316 µM): 62.7%
- viability, T/C (second compound 0.316 µM, first compound 1 µM): 31%
- viability, T/C (second compound 1 µM, first compound 0.00316 µM): 133%
- viability, T/C (second compound 1 µM, first compound 0.01 µM): 103%
- viability, T/C (second compound 1 µM, first compound 0.0316 µM): 62.8%
- viability, T/C (second compound 1 µM, first compound 0.1 µM): 43%
- viability, T/C (second compound 1 µM, first compound 0.316 µM): 58%
- viability, T/C (second compound 1 µM, first compound 1 µM): 28.8%
- viability, T/C (second compound 3.16 µM, first compound 0.00316 µM): 109%
- viability, T/C (second compound 3.16 µM, first compound 0.01 µM): 91.7%
- viability, T/C (second compound 3.16 µM, first compound 0.0316 µM): 65.6%
- viability, T/C (second compound 3.16 µM, first compound 0.1 µM): 38.8%
- viability, T/C (second compound 3.16 µM, first compound 0.316 µM): 43.7%
- viability, T/C (second compound 3.16 µM, first compound 1 µM): 17.8%
- viability, T/C (second compound 10 µM, first compound 0.00316 µM): 88.1%
- viability, T/C (second compound 10 µM, first compound 0.01 µM): 63%
- viability, T/C (second compound 10 µM, first compound 0.0316 µM): 39%
- viability, T/C (second compound 10 µM, first compound 0.1 µM): 38.9%
- viability, T/C (second compound 10 µM, first compound 0.316 µM): 22.1%
- viability, T/C (second compound 10 µM, first compound 1 µM): 5.94%
